Results reported in PubChem BioAssay AID2060908 (Molecular Pharmacology Branch, DTP, NCI, 2025).

Tested on: 186277-243-T-J2-PDC complex spheroids, viability
Experiment: Anticancer human tumor 186277-243-T-J2-PDC patient-derived colon adenocarcinoma cell line growth inhibition [RAS]
Details: for IC50: curve of first compound; for viability, T/C: stronger effect = lower value
In short: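 Tumour cells grown as complex spheroids with HUVEC endothelial cells and mesenchymal stem cells, treated with RAS pathway inhibitor combinations. Each agent spans half-log steps from near clinical Cmax, or 10 microM where Cmax is unknown.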

[1] = second compound 0.000949 µM, first compound 0.0316 µM
[2] = second compound 0.000949 µM, first compound 0.1 µM
[3] = second compound 0.000949 µM, first compound 0.316 µM
[4] = second compound 0.000949 µM, first compound 1 µM
[5] = second compound 0.003 µM, first compound 0.0316 µM
[6] = second compound 0.003 µM, first compound 0.1 µM
[7] = second compound 0.003 µM, first compound 0.316 µM
[8] = second compound 0.003 µM, first compound 1 µM
[9] = second compound 0.00949 µM, first compound 0.0316 µM
[10] = second compound 0.00949 µM, first compound 0.1 µM
[11] = second compound 0.00949 µM, first compound 0.316 µM
[12] = second compound 0.00949 µM, first compound 1 µM
[13] = second compound 0.03 µM, first compound 0.0316 µM
[14] = second compound 0.03 µM, first compound 0.1 µM
[15] = second compound 0.03 µM, first compound 0.316 µM
[16] = second compound 0.03 µM, first compound 1 µM
[17] = second compound 0.0949 µM, first compound 0.0316 µM
[18] = second compound 0.0949 µM, first compound 0.1 µM
[19] = second compound 0.0949 µM, first compound 0.316 µM
[20] = second compound 0.0949 µM, first compound 1 µM
[21] = second compound 0.3 µM, first compound 0.0316 µM
[22] = second compound 0.3 µM, first compound 0.1 µM
[23] = second compound 0.3 µM, first compound 0.316 µM
[24] = second compound 0.3 µM, first compound 1 µM
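Further: spheroids exposed to compounds for 7 days before viability read.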

C=CC(=O)N1CCN(c2nc(OCC3CCCN3C)nc3c(F)c(-c4nc(N)cc(C)c4C(F)(F)F)c(Cl)cc23)C(C)C1 (stereo unspecified) + CCn1c(-c2cccnc2C(C)OC)c2c3cc(ccc31)N1CCOC(CC(NC(=O)C(C(C)C)N(C)C(=O)C3(F)CCN(C(=O)C#CC(C)(C)N(C)C)CC3)C(=O)N3CCCC(N3)C(=O)OCC(C)(C)C2)C1
IC50 (second compound 0.000949 µM): > 1 µM | IC50 (second compound 0.003 µM): > 1 µM | IC50 (second compound 0.00949 µM): > 1 µM | IC50 (second compound 0.03 µM): > 1 µM | IC50 (second compound 0.0949 µM): > 1 µM | IC50 (second compound 0.3 µM): > 1 µM | viability, T/C (second compound 0.000949 µM, first compound 0.00316 µM): 88.7% | viability, T/C (second compound 0.000949 µM, first compound 0.01 µM): 79% | viability, T/C [1]: 89.2% | viability, T/C [2]: 80.8% | viability, T/C [3]: 95.6% | viability, T/C [4]: 96.6% | viability, T/C (second compound 0.003 µM, first compound 0.00316 µM): 88% | viability, T/C (second compound 0.003 µM, first compound 0.01 µM): 97.6% | viability, T/C [5]: 83.4% | viability, T/C [6]: 102% | viability, T/C [7]: 94.1% | viability, T/C [8]: 111% | viability, T/C (second compound 0.00949 µM, first compound 0.00316 µM): 91.6% | viability, T/C (second compound 0.00949 µM, first compound 0.01 µM): 102% | viability, T/C [9]: 104% | viability, T/C [10]: 106% | viability, T/C [11]: 98.6% | viability, T/C [12]: 98.3% | viability, T/C (second compound 0.03 µM, first compound 0.00316 µM): 81.4% | viability, T/C (second compound 0.03 µM, first compound 0.01 µM): 105% | viability, T/C [13]: 95.8% | viability, T/C [14]: 107% | viability, T/C [15]: 116% | viability, T/C [16]: 91.7% | viability, T/C (second compound 0.0949 µM, first compound 0.00316 µM): 85.3% | viability, T/C (second compound 0.0949 µM, first compound 0.01 µM): 109% | viability, T/C [17]: 121% | viability, T/C [18]: 106% | viability, T/C [19]: 95.6% | viability, T/C [20]: 93.7% | viability, T/C (second compound 0.3 µM, first compound 0.00316 µM): 98.2% | viability, T/C (second compound 0.3 µM, first compound 0.01 µM): 93.7% | viability, T/C [21]: 111% | viability, T/C [22]: 97.5% | viability, T/C [23]: 114% | viability, T/C [24]: 99.7%

NC1c2ccccc2OC12CCN(c1cnc3c(N4CCCc5ncccc54)n[nH]c3n1)CC2 (stereo unspecified) + CCn1c(-c2cc(N3CCN(C)CC3)cnc2C(C)OC)c2c3cc(ccc31)-c1csc(n1)CC(NC(=O)C1CC1C)C(=O)N1CCCC(N1)C(=O)OCC(C)(C)C2
IC50 (second compound 0.000949 µM): 0.0542 µM | IC50 (second compound 0.003 µM): < 0.0316 µM | IC50 (second compound 0.00949 µM): < 0.0316 µM | IC50 (second compound 0.03 µM): < 0.0316 µM | IC50 (second compound 0.0949 µM): < 0.0316 µM | IC50 (second compound 0.3 µM): < 0.0316 µM | viability, T/C [1]: 70.1% | viability, T/C [2]: 26.9% | viability, T/C [3]: 6.05% | viability, T/C [4]: 3.49% | viability, T/C (second compound 0.000949 µM, first compound 3.16 µM): 2.69% | viability, T/C (second compound 0.000949 µM, first compound 10 µM): 2.5% | viability, T/C [5]: 25.1% | viability, T/C [6]: 6.27% | viability, T/C [7]: 3.3% | viability, T/C [8]: 2.57% | viability, T/C (second compound 0.003 µM, first compound 3.16 µM): 2.3% | viability, T/C (second compound 0.003 µM, first compound 10 µM): 1.8% | viability, T/C [9]: 7.02% | viability, T/C [10]: 3.42% | viability, T/C [11]: 2.63% | viability, T/C [12]: 1.94% | viability, T/C (second compound 0.00949 µM, first compound 3.16 µM): 1.79% | viability, T/C (second compound 0.00949 µM, first compound 10 µM): 1.61% | viability, T/C [13]: 3.98% | viability, T/C [14]: 3.86% | viability, T/C [15]: 2.26% | viability, T/C [16]: 1.79% | viability, T/C (second compound 0.03 µM, first compound 3.16 µM): 3.5% | viability, T/C (second compound 0.03 µM, first compound 10 µM): 1.52% | viability, T/C [17]: 3.58% | viability, T/C [18]: 2.71% | viability, T/C [19]: 2.03% | viability, T/C [20]: 1.94% | viability, T/C (second compound 0.0949 µM, first compound 3.16 µM): 1.81% | viability, T/C (second compound 0.0949 µM, first compound 10 µM): 1.53% | viability, T/C [21]: 3.17% | viability, T/C [22]: 2.52% | viability, T/C [23]: 1.83% | viability, T/C [24]: 1.56% | viability, T/C (second compound 0.3 µM, first compound 3.16 µM): 1.77% | viability, T/C (second compound 0.3 µM, first compound 10 µM): 1.56%

CC1(C)CCC(Nc2ncc(C(F)(F)F)c(-c3c[nH]c4c(P(C)(C)=O)c(C#N)ccc34)n2)CN1 (stereo unspecified) + C=CC(=O)N1CCN(c2nc(OCC3CCCN3C)nc3c(F)c(-c4nc(N)cc(C)c4C(F)(F)F)c(Cl)cc23)C(C)C1
IC50 (second compound 0.00316 µM): > 0.3 µM | IC50 (second compound 0.01 µM): > 0.3 µM | IC50 (second compound 0.0316 µM): > 0.3 µM | IC50 (second compound 0.1 µM): > 0.3 µM | IC50 (second compound 0.316 µM): > 0.3 µM | IC50 (second compound 1 µM): > 0.3 µM | viability, T/C (second compound 0.00316 µM, first compound 0.000949 µM): 94.9% | viability, T/C (second compound 0.00316 µM, first compound 0.003 µM): 98.4% | viability, T/C (second compound 0.00316 µM, first compound 0.00949 µM): 143% | viability, T/C (second compound 0.00316 µM, first compound 0.03 µM): 66.8% | viability, T/C (second compound 0.00316 µM, first compound 0.0949 µM): 75.5% | viability, T/C (second compound 0.00316 µM, first compound 0.3 µM): 56.9% | viability, T/C (second compound 0.01 µM, first compound 0.000949 µM): 109% | viability, T/C (second compound 0.01 µM, first compound 0.003 µM): 115% | viability, T/C (second compound 0.01 µM, first compound 0.00949 µM): 146% | viability, T/C (second compound 0.01 µM, first compound 0.03 µM): 58.6% | viability, T/C (second compound 0.01 µM, first compound 0.0949 µM): 60.2% | viability, T/C (second compound 0.01 µM, first compound 0.3 µM): 66.4% | viability, T/C (second compound 0.0316 µM, first compound 0.000949 µM): 101% | viability, T/C (second compound 0.0316 µM, first compound 0.003 µM): 118% | viability, T/C (second compound 0.0316 µM, first compound 0.00949 µM): 135% | viability, T/C (second compound 0.0316 µM, first compound 0.03 µM): 85.4% | viability, T/C (second compound 0.0316 µM, first compound 0.0949 µM): 66.7% | viability, T/C (second compound 0.0316 µM, first compound 0.3 µM): 65.9% | viability, T/C (second compound 0.1 µM, first compound 0.000949 µM): 96.6% | viability, T/C (second compound 0.1 µM, first compound 0.003 µM): 120% | viability, T/C (second compound 0.1 µM, first compound 0.00949 µM): 120% | viability, T/C (second compound 0.1 µM, first compound 0.03 µM): 71.4% | viability, T/C (second compound 0.1 µM, first compound 0.0949 µM): 69.7% | viability, T/C (second compound 0.1 µM, first compound 0.3 µM): 63.2% | viability, T/C (second compound 0.316 µM, first compound 0.000949 µM): 103% | viability, T/C (second compound 0.316 µM, first compound 0.003 µM): 96% | viability, T/C (second compound 0.316 µM, first compound 0.00949 µM): 98.5% | viability, T/C (second compound 0.316 µM, first compound 0.03 µM): 82.2% | viability, T/C (second compound 0.316 µM, first compound 0.0949 µM): 65% | viability, T/C (second compound 0.316 µM, first compound 0.3 µM): 62.1% | viability, T/C (second compound 1 µM, first compound 0.000949 µM): 112% | viability, T/C (second compound 1 µM, first compound 0.003 µM): 102% | viability, T/C (second compound 1 µM, first compound 0.00949 µM): 114% | viability, T/C (second compound 1 µM, first compound 0.03 µM): 70.8% | viability, T/C (second compound 1 µM, first compound 0.0949 µM): 64.3% | viability, T/C (second compound 1 µM, first compound 0.3 µM): 68.5%
